The source of these data is a melting point compilation (Tetko et al.; mined from patent text by program, amines drawn as free bases though some values may be those of a salt).

SMILES strings stand for the structures.

For orientation: melting point means the temperature of the solid-liquid transition.

Turning to `COC(=O)c1cc(OC(C)=O)c2cc[nH]c2c1`, the melting point is 160 to 162 °C.
For `NC(=O)CCC(CCCCNS(=O)(=O)c1ccc(Cl)cc1)CCCc1cccnc1` (stereo not given) the value was 100 to 102 °C; for `Cc1nn(C)cc1S(N)(=O)=O`, 97 to 105 °C.
The value for `COc1cc(N2CCOCC2)ccc1Nc1nc(Nc2ccc3c(c2OC)CCCC(=O)N3C)ncc1Cl` was 197 to 199 °C; that for `O=C1C[C@H](O)C(=O)N1Cc1ccccc1` was 110 to 113 °C; that for `N#Cc1c(N2CCCCC2)cc(-c2cccs2)c2c1C(=O)c1ccccc1-2` was 226 to 228 °C.
`FC(F)(F)COC(c1ccc(Cl)c2nc3n(c12)CCCN3c1ccc(Cl)cc1Cl)C1CC1` (stereo not given) had a melting point of 143 to 145 °C.
For `Cc1ccn(Cc2ccc(Cl)c(Cl)c2)c(=O)c1C#N` the value was 178 to 180 °C; for `COc1ccc(C(O)(C(F)(F)F)C(F)(F)F)cc1C=O`, 160 to 161 °C; for `Cc1cc2cc(NC(=O)Nc3ccc(Cl)cc3)ccc2[nH]1`, 257 to 260 °C.
For `CC(=O)c1cc(Cl)c(N)c2c1OCCO2` the value was 133 to 136 °C; for `Cc1cc(C)c2c(c1O)C(NCc1ccccc1)=C(c1ccccc1)C2`, 214 to 215 °C; for `CC(=O)c1ccc(Oc2ccc(F)cc2F)c(NS(C)(=O)=O)c1`, 142 to 143 °C.
For `CCCc1c(OCCCCC(=O)N(CC)CC)ccc(C(C)=O)c1O` the value was 95 to 97 °C; for `CC(=O)N1CCN=C1Nc1cccc2c1CCC2`, 180 to 182 °C.
For `CN(C)Cc1ccc(-c2ccc(S(=O)(=O)n3ccc(C=CC(=O)NO)c3)cc2)cc1`, the melting point is 216 to 217 °C.
Consider `CN(C)CCCn1c2c(c3ccccc31)CCSCCC2`, for which the melting point was in the range of 70 to 71 °C.
For `Cc1ccc(-c2ccc(C)cc2[N+](=O)[O-])c([N+](=O)[O-])c1` the value was 138 to 141 °C; for `C=CCn1cc2cc3ncc(-c4ccc(OC)c(F)c4)nc3cc2n1`, 196 to 200 °C; for `CCCc1ccnc2c(=O)[nH]c(-c3cc([N+](=O)[O-])ccc3OCC)nc12`, 257 to 259 °C.
The value for `O=C(N1CCc2cc(O)c(O)cc2C(c2ccccc2)C1)C(F)(F)F` (stereo not given) was 182 to 188 °C; that for `COc1ccc(/C=C/C(=O)/C=C/C(=O)O)cc1` was 104 °C.
The value for `COc1ccc(N2CCN(c3c(C)c(C)c4c(c3C)CC(C)(CN3CCCCC3)O4)CC2)cc1` (stereo not given) was 122 to 125 °C; that for `CCOC(=O)c1c(CN(CC)CC)nc2sc(C)c(C)c2c1-c1ccc(OC)c(OC)c1` was 110 to 111 °C.
With `O=C(Nc1c(OCc2ccccc2)cc(Br)cc1[N+](=O)[O-])C(F)(F)F`, the melting point was 146 to 147 °C.
`COC(=O)c1ccc(O)c(C(=O)CC(=O)c2ccccc2OC(C)C)c1` registered a melting point of 105 to 107 °C.
In turn, `COc1cc(C=C(C(C)=O)C(C)=O)cc(OC)c1OC` displayed a melting point of 83 to 86 °C.
For `COc1ccc(C(=O)O)c([N+](=O)[O-])c1` the value was 193 to 195 °C.
`Cc1ccc(Cl)c2nc3cccc(C(=O)NCCCN(C)CCCNC(=O)c4cccc5nc6c(Cl)ccc(C)c6nc45)c3nc12` had a melting point of 200 to 202 °C.
For `NNC(=O)C1(Cl)CC1(Cl)Cl` (stereo not given) the value was 122 to 123 °C; for `CCOC(=O)CCCCCOc1ccc(C(=O)Nc2ccccc2S(=O)(=O)c2ccccc2-c2nnn[nH]2)cc1`, 180 to 181 °C; for `O=S1(=O)c2cccc3cccc(c23)N1CCCCN1CCN(c2noc3ccccc23)CC1`, 138 °C.
With `CCCCCc1ccc(CCc2ccc(-c3ccc(Cl)c(F)c3)cc2)cc1`, the melting point came out at 153 °C.
The value for `CCOC(=O)C(=O)CC(=O)c1ccc2c(c1)c(=O)c(CCC(=O)O)cn2Cc1ccc(F)cc1` was 177 to 180 °C; that for `CCN1CCc2ccc(Nc3ncc(Cl)c(N[C@@H]4c5ccccc5C[C@@H]4O)n3)cc2CC1` was 209 °C.
